Measured values as given in patent US20250170114A1, “METHODS OF TREATMENT USING T-TYPE CALCIUM CHANNEL MODULATORS” (Praxis Precision Medicines, Inc., priority 2022, published 2025).
“Also recorded” adds a separate entry of the source.

Legend:
[1] = tested on: harmaline-induced motor impairment in male SD rats; assay: Wire grip test with harmaline in SD rats; assay type: in vivo, rat; details: harmaline 30 mg/kg, 10 mg/kg, reference compound
Source text: (§1) Each of six groups of male SD rats were subjected to a tremor assessment, followed by three ADL-like measures including open field test, rotarod test, and wire grip test after receiving doses of either vehicle, Formula (I), or propranolol, followed by either saline or harmaline, as outlined below in Table 22 below.
Fifteen minutes after the rotarod test, rats were subjected to a wire grip test using an 80 cm long and 7 mm in diameter wire placed at a height of 50 cm.

[2] = tested on: rat spontaneous locomotor activity (sLMA); assay: Rat spontaneous locomotor activity (sLMA) assay; assay type: in vivo; details: rats, 0-30 min; compound of Formula (I) 1 mg/kg p.o., propranolol 1 or 3 mg/kg i.p., alone or in combination
Protocol: […] Rat sLMA was measured from 0-30 min (0 minutes is 60 minutes after administration of the compound of Formula (I) and 20 minutes after administration of propranolol).

[3] = tested on: harmaline-induced motor impairment in male SD rats; assay: Rotarod test with harmaline in SD rats; assay type: in vivo, rat; details: harmaline 30 mg/kg, 10 mg/kg
Protocol: as §1
Fifteen minutes after the open field test, the rats were subjected to a rotarod test. The speed of the rotarod increased from 10 rpms to 60 rpms within the first five minutes of the test. FIG. 9 is a bar graph showing the mean of latency to fall in the rotarod test measured in rats that were administered 30 mg/kg harmaline and also administered 10 mg/kg propranolol or 1 mg/kg, 3 mg/kg or 10 mg/kg study drug.

[4] = Plasma and brain tissue concentrations in rats after harmaline testing; assay type: in vivo, rat; details: collected immediately after harmaline testing
Protocol: Plasma and brain tissue sample collection (at 90 min post dosing of study compound) was evaluated in […]. N=15 in each group. Plasma and brain tissue samples were collected immediately after harmaline testing. Plasma sample number: 5×15=75. Brain tissue sample number: 5×15=75.

[5] = tested on: harmaline-induced decrease in travelling distance in male SD rats; assay: Open field test with harmaline in SD rats; assay type: in vivo, rat; details: harmaline 30 mg/kg, 10 mg/kg
Protocol: as §1
Fifteen minutes after the tremor assessment, the rats were subjected to an open field test. FIG. 8 is a bar graph showing the traveling distance in 0-5 minutes (mm) measured in rats that were administered 30 mg/kg harmaline and also administered 10 mg/kg propranolol or 1 mg/kg, 3 mg/kg or 10 mg/kg study drug.

[6] = tested on: harmaline-induced tremor in male SD rats; assay: Tremor assessment (tremor score 0-4) with harmaline in SD rats; assay type: in vivo, rat; details: harmaline 30 mg/kg, 10 mg/kg
Source text: as §1, with “below. Twenty minutes after administration of harmaline or saline, the rats were subjected to a tremor assessment using the score criteria outlined in the table below.” for “below.”

total sLMA (total distance travelled) [2]: do not significantly reduce
Compound: CC(C)NCC(O)COc1cccc2ccccc12 (stereo not drawn) [propranolol, reference compound]
latency to fall in wire grip test [1]: significant reduction in motor impairment; also recorded: significantly attenuated
latency to fall in rotarod test vs vehicle and harmaline only [3]: failed to display any significant improvement; also recorded: no effect
plasma and brain concentrations [4]: consistent with those measured in previous studies
harmaline-induced decrease in spontaneous locomotor activity in the open field [5]: no effect
average tremor score vs vehicle and harmaline only [6]: significantly lower; also recorded: significantly inhibited
